The results in this text go back to US11161854B2, “Indazolyl-spiro[2.2]pentane-carbonitrile derivatives as LRRK2 inhibitors, pharmaceutical compositions, and uses thereof” (Merck Sharp & Dohme Corp., priority 2017, dated 2021).

pIC50: −log10 of the molar value.

By pIC50 is commonly meant the negative decadic logarithm of the IC50, by convention in mol/L. Lower therefore signals a high IC50.

The target of the assay is GST-tagged truncated human mutant G2019S LRRK2 (Homo sapiens (Human), UniProt Q5S007, G2019S). As to the kind of experiment: LRRK2 G2019S Km ATP LanthaScreen Assay. Type of assay: biochemical. The note with it: 134 μM ATP (Km ATP); fluorescein-labeled LRRKtide substrate; mean IC50 values. The protocol: The IC50 values reported herein were measured as follows.
Biological Assay: LRRK2 Km ATP LanthaScreen™ Assay
The data presented for the Km ATP LanthaScreen™ Assay represents mean IC50 values based on several test results and may have reasonable deviations depending on the specific conditions and reagents used. Assays were performed in the presence of 134 μM ATP (Km ATP). Upon completion, the assay was stopped and phosphorylated substrate detected with a terbium (Tb)-labeled anti-pERM antibody (cat. no. PV4898). The compound dose response was prepared by diluting a 10 mM stock of compound to a maximum concentration of […] in 100% dimethylsulfoxide followed by custom fold serial dilution in dimethylsulfoxide nine times. Twenty nanoliters of each dilution was spotted via a Labcyte Echo onto a 384-well black-sided plate (Corning 3575) followed by 15 μl of a 1.25 nM enzyme solution in 1× assay buffer (50 mM Tris pH 8.5, 10 mM MgCl2, 0.01% Brij-35, 1 mM EGTA, 2 mM dithiothreitol, 0.05 mM sodium orthovanadate). Following a 15-minute incubation at room temperature, the kinase reaction was started with the addition of 5 μl of 400 nM fluorescein-labeled LRRKtide peptide substrate and 134 μM ATP solution in 1× assay buffer. The reaction was allowed to progress at ambient temperature for 90 minutes. The reaction was then stopped by the addition of 20 μl of TR-FRET Dilution Buffer (Life Technologies, Carlsbad, Calif.) containing 2 nM Tb-labeled anti-phospho LRRKtide antibody and 10 mM EDTA (Life Technologies, Carlsbad, Calif.). After an incubation of 1 hour at room temperature, the plate was read on an EnVision multimode plate reader (Perkin Elmer, Waltham, Mass.) with an excitation wavelength of 337 nm (Laser) and a reading emission at both 520 and 495 nm. […] Abase uses a 4 parameter (4P) logistic fit based on the Levenberg-Marquardt algorithm.

Sequence of GST-tagged truncated human mutant G2019S LRRK2 (Q5S007 970-2527 G2019S): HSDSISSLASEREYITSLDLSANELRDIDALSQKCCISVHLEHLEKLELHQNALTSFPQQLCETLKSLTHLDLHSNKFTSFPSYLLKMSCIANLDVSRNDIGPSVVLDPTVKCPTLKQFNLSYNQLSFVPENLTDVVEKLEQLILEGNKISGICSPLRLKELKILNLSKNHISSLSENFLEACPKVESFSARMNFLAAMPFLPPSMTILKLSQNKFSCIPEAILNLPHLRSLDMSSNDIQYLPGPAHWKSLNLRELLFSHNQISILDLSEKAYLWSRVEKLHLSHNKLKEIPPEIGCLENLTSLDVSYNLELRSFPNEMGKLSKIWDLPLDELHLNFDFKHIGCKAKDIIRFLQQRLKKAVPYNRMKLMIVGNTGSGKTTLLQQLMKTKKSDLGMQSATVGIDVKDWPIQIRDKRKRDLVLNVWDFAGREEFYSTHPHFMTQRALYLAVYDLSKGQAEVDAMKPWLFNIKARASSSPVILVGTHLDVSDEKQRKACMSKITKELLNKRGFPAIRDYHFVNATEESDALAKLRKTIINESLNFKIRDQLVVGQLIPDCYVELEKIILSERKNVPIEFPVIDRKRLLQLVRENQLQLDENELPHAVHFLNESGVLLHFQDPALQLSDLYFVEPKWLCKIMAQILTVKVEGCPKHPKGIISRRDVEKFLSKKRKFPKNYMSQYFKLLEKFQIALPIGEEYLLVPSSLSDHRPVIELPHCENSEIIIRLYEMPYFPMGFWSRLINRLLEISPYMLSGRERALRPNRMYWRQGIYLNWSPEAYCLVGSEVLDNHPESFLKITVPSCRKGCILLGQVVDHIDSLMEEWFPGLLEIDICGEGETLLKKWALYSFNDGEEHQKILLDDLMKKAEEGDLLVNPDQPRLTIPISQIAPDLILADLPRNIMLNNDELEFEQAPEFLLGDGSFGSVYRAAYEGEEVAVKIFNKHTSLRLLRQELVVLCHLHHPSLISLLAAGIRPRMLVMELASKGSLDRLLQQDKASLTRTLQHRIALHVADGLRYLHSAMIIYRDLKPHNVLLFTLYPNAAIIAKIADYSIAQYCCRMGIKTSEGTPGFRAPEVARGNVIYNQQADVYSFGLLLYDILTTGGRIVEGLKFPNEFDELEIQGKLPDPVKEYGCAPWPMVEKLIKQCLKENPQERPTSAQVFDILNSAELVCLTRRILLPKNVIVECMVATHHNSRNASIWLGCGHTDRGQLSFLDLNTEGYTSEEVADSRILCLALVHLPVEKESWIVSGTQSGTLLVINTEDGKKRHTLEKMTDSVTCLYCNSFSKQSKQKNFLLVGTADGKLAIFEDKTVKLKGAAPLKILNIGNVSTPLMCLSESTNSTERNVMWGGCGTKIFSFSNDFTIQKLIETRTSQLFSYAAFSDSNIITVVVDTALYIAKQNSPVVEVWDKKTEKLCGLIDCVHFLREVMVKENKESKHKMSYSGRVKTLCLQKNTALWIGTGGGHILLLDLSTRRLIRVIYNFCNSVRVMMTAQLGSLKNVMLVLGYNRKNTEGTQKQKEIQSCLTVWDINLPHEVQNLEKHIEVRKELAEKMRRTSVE

The molecule `CC(C)(O)[C@@H]1CCN(c2cc(-n3ncc4ccc(C5(C#N)CC56CC6)cc43)ncn2)C1` (single isomer, unassigned) [Example 1.4-1, (R or S)-1-(1-(6-((R)-3-(2-hydroxypropan-2-yl)pyrrolidin-1-yl)pyrimidin-4-yl)-1H-indazol-6-yl)spiro[2.2]pentane-1-carbonitrile] gave a pIC50 of 9.00.
The figure for `COc1nc(N2C[C@@H](C)[C@@](C)(O)[C@@H](C)C2)cc(-n2ncc3ccc([C@]4(C#N)CC45CC5)cc32)n1` [Example 3.4] is 8.82.
The value for `N#C[C@@]1(c2ccc3cnn(-c4cc(C5CCN(C6COC6)CC5)ncn4)c3c2)CC12CC2` [Example 4.18] was 7.73.
As to `N#CC1(c2ccc3cnn(-c4cc(N5CC6(CCOC6)C5)ncn4)c3c2)CC12CC2` (stereo not drawn) [Example 1.5], the pIC50 was 9.05.
In the case of `COC1(C(C)(C)O)CCN(c2cc(-n3ncc4ccc([C@]5(C#N)CC56CC6)cc43)ncn2)C1` (single isomer, unassigned) [Example 3.10-2], the pIC50 is 8.68.
The value for `CCc1cc(-n2ncc3ccc([C@]4(C#N)CC45CC5)cc32)nc(C)n1` [Example 4.26] was 8.51; that for `COCc1nc(N2CC3(C(C)(C)O)CC2C3)cc(-n2ncc3ccc(C4(C#N)CC45CC5)cc32)n1` (single isomer, unassigned) [Example 2.3-2, (R or S)-1-(1-(6-(4-(2-hydroxypropan-2-yl)-2-azabicyclo[2.1.1]hexan-2-yl)-2-(methoxymethyl)pyrimidin-4-yl)-1H-indazol-6-yl)spiro[2.2]pentane-1-carbonitrile] was 8.92.
The value for `COC1(C(C)(C)O)CCN(c2cc(-n3ncc4ccc([C@@]5(C#N)CC56CC6)cc43)ncn2)C1` (single isomer, unassigned) [Example 3.10-3] was 8.51; that for `C[C@@H]1CN(c2cc(-n3ncc4cnc(C5(C#N)CC56CC6)cc43)ncn2)C[C@H](C)[C@]1(C)O` (single isomer, unassigned) [Example 5.4-2] was 8.59; that for `COCc1nc(C)cc(-n2ncc3ccc([C@]4(C#N)CC45CC5)cc32)n1` [Example 4.24] was 7.99.
`Cc1nc(N2CC3(C(C)(C)O)CC2C3)cc(-n2ncc3cc(F)c(C4(C#N)CC45CC5)cc32)n1` (single isomer, unassigned) [Example 5.6-1, 1-(5-fluoro-1-(6-(4-(2-hydroxypropan-2-yl)-2-azabicyclo[2.1.1]hexan-2-yl)-2-methylpyrimidin-4-yl)-1H-indazol-6-yl)spiro[2.2]pentane-1-carbonitrile] had a pIC50 of 7.68.
For `CC1CN(c2cc(-n3ncc4ccc([C@]5(C#N)CC56CC6)cc43)ncn2)CC1C(C)(C)O` (single isomer, unassigned) [Example 3.6-4], the pIC50 was 8.68.
The molecule `CC(C)(O)C12CC(C1)N(c1cc(-n3ncc4ccc(C5(C#N)CC56CC6)cc43)ccn1)C2` (single isomer, unassigned) [Example 6.1, (R or S)-1-(1-(2-(4-(2-hydroxypropan-2-yl)-2-azabicyclo[2.1.1]hexan-2-yl)pyridin-4-yl)-1H-indazol-6-yl)spiro[2.2]pentane-1-carbonitrile] gave a pIC50 of 8.92.
Regarding `Cc1cc(-n2ncc3ccc(C4(C#N)CC45CC5)cc32)cc(N2CC3(C(C)(C)O)CC2C3)n1` (single isomer, unassigned) [Example 7.3-2, (R or S)-1-(1-(2-(4-(2-hydroxypropan-2-yl)-2-azabicyclo[2.1.1]hexan-2-yl)-6-methylpyridin-4-yl)-1H-indazol-6-yl)spiro[2.2]pentane-1-carbonitrile], the pIC50 was 8.34.
The figure for `CC(C)(O)C1CN(c2cc(-n3ncc4ccc([C@]5(C#N)CC56CC6)cc43)ncn2)CCO1` (single isomer, unassigned) [Example 4.3-2, 1-(1-(6-(2-(2-hydroxypropan-2-yl)morpholino)pyrimidin-4-yl)-1H-indazol-6-yl)spiro[2.2]pentane-1-carbonitrile] is 9.22.
The molecule `CC(C)(O)[C@@H]1CCN(c2cc(-n3ncc4cc(F)c(C5(C#N)CC56CC6)cc43)ncn2)C1` (single isomer, unassigned) [Example 5.7-2] showed a pIC50 of 8.59.
Consider `CC1C(C(C)(C)O)CCN1c1cc(-n2ncc3ccc([C@]4(C#N)CC45CC5)cc32)ncn1` (single isomer, unassigned) [Example 3.5-6], for which the negative logarithm of the IC50 (pIC50) was 8.31.
The figure for `CC1C(C(C)(C)O)CCN1c1cc(-n2ncc3ccc([C@@]4(C#N)CC45CC5)cc32)ncn1` (single isomer, unassigned) [Example 3.5-1] is 6.91; for `Cc1cc(-n2ncc3ccc(C4(C#N)CC45CC5)cc32)cc(N2CC3(C(C)(C)O)CC2C3)n1` (single isomer, unassigned) [Example 7.3-1, (R or S)-1-(1-(2-(4-(2-hydroxypropan-2-yl)-2-azabicyclo[2.1.1]hexan-2-yl)-6-methylpyridin-4-yl)-1H-indazol-6-yl)spiro[2.2]pentane-1-carbonitrile] it is 7.27; for `CNc1nc(N2CC[C@H](C(F)F)C2)cc(-n2ncc3ccc(C4(C#N)CC45CC5)cc32)n1` (single isomer, unassigned) [Example 2.8-1] it is 9.15.
Molecule `CNc1nc(N2CC[C@@H](C(C)(C)O)C2)cc(-n2ncc3ccc(C4(C#N)CC45CC5)cc32)n1` (stereo partly drawn) [Example 2.6-1, 1-(1-(6-((R)-3-(2-hydroxypropan-2-yl)pyrrolidin-1-yl)-2-(methylamino)pyrimidin-4-yl)-1H-indazol-6-yl)spiro[1.2.2]pentane-1-carbonitrile] gave a pIC50 of 9.10. This pIC50 and that of the molecule before are within 0.2 log units of each other.
The figure for `Cc1nc(N2CC3(CN(CC(F)(F)F)C3)C2)cc(-n2ncc3cnc(C4(C#N)CC45CC5)cc32)n1` (single isomer, unassigned) [Example 12.1, (S or R)-1-(1-(2-methyl-6-(6-(2,2,2-trifluoroethyl)-2,6-diazaspiro[3.3]heptan-2-yl)pyrimidin-4-yl)-1H-pyrazolo[4,3-c]pyridin-6-yl)spiro[2.2]pentane-1-carbonitrile] is 8.68.
The value for `CNc1nc(N2CC3(C(C)(C)O)CC2C3)cc(-n2ncc3ccc(C4(C#N)CC45CC5)cc32)n1` (single isomer, unassigned) [Example 2.7-2, 1-(1-(6-(4-(2-hydroxypropan-2-yl)-2-azabicyclo[2.1.1]hexan-2-yl)-2-(methylamino)pyrimidin-4-yl)-1H-indazol-6-yl)spiro[2.2]pentane-1-carbonitrile] was 9.22; that for `N#C[C@@]1(c2ccc3cnn(-c4cc(N5CCOC(CO)C5)ncn4)c3c2)CC12CC2` (stereo in doubt) [Example 4.9-1, 1-(1-(6-(2-(hydroxymethyl)morpholino)pyrimidin-4-yl)-1H-indazol-6-yl)spiro[2.2]pentane-1-carbonitrile] was 9.22.
The figure for `CC(C)(O)C12CC(C1)N(c1cc(-n3ncc4cnc(C5(C#N)CC56CC6)cc43)ncn1)C2` (single isomer, unassigned) [Example 5.2-2, 1-(1-(6-(4-(2-hydroxypropan-2-yl)-2-azabicyclo[2.1.1]hexan-2-yl)pyrimidin-4-yl)-1H-pyrazolo[4,3-c]pyridin-6-yl)spiro[2.2]pentane-1-carbonitrile] is 8.77; for `Cc1cc(-n2ncc3ccc([C@]4(C#N)CC45CC5)cc32)cc(C)n1` [Example 11.5] it is 8.11.
Turning to `C[C@@H]1CN(c2cc(-n3ncc4ccc([C@]5(C#N)CC56CC6)cc43)ncn2)CCN1C1CCOC1` (single isomer, unassigned) [Example 3.7-2], the pIC50 is 8.77.
The value for `CC1C(C(C)(C)O)CCN1c1cc(-n2ncc3ccc([C@@]4(C#N)CC45CC5)cc32)ncn1` (single isomer, unassigned) [Example 3.5-5] was 7.56; that for `CC(C)(O)C1CN(c2cc(-n3ncc4ccc([C@]5(C#N)CC56CC6)cc43)ncn2)C1` [Example 4.4] was 9.22; that for `CC(C)(O)C12CC(C1)N(c1cc(-n3ncc4ccc(C5(C#N)CC56CC6)cc43)cnn1)C2` (single isomer, unassigned) [Example 10.3-1, (R or S)-1-(1-(6-(4-(2-hydroxypropan-2-yl)-2-azabicyclo[2.1.1]hexan-2-yl)pyridazin-4-yl)-1H-indazol-6-yl)spiro[2.2]pentane-1-carbonitrile] was 7.45.
The figure for `CC1CN(c2cc(-n3ncc4ccc([C@@]5(C#N)CC56CC6)cc43)ncn2)CC1C(C)(C)O` (single isomer, unassigned) [Example 3.6-3] is 8.01.
The value for `Cc1nc(N2CC3(CN(CC(F)(F)F)C3)C2)cc(-n2ncc3ccc(C4(C#N)CC45CC5)cc32)n1` (stereo not drawn) [Example 12.2] was 7.55; that for `N#C[C@]1(c2ccc3cnn(-c4cc(N5CC(O)C6(CC6)C5)ncn4)c3c2)CC12CC2` (single isomer, unassigned) [Example 3.11-1] was 8.17.
